Where two headings read alike, the source gives them in different places.
Molecular target: T1, VAV1 (Homo sapiens, UniProt P15498+Q96SW2)
T1 construct: A heterozygous VAV1 C-terminal HiBiT knock-in pool was generated at Monte Rosa Therapeutics from a clonal Jurkat cell; endogenous in cells; host or cells: Jurkat clone stably expressing LgBiT, homozygous GSPT1-G575N; heterozygous VAV1-HiBiT knock-in pool
Test: VAV1 degradation activity, VAV1-HiBiT knock-in Jurkat luminescence assay (Example A, Table 1)
Type: cell-based
Settings: VAV1-HiBiT knock-in Jurkat cells, luminescence read at 6 and 24 hours; for Dmax: Jurkat
Method in brief: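 Jurkat cells carrying VAV1-HiBiT knock-in, plated in RPMI/10% FBS with Endurazine live-cell substrate and pre-incubated ~16 h at 37° C. Compound dosed from 10 μM stock; luminescence read 6 and 24 h later. Response normalised to plate negative/positive controls, EC50 from 3-parameter logistic fit (hillslope 1).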

[1] = read-out: VAV1 DC50 (nM), class

| Structure (SMILES) | Dmax (read-out: VAV1 Dmax %) [%] | Dmax (read-out: VAV1 Dmax %, class) [%] | DC50 (read-out: VAV1 DC50) [nM] | DC50 [1] [nM] | VAV1 Dmax %, class | VAV1 Dmax % [%] |
| --- | --- | --- | --- | --- | --- | --- |
| O=C1CCC(c2cccc(-c3ccc(CN4CCN5CCCC5C4=O)cc3)c2Cl)C(=O)N1 (stereo not shown) [Compound 261] | 84.8 | 60 to 90 | 101 | 100 to 1000 |  |  |
| O=C1CCC(c2cccc(-c3ccc(CN4C(=O)CCCC4C(F)(F)F)cc3)c2Cl)C(=O)N1 (stereo not shown) [Compound 262] | 90.2 | > 90 | 32.6 | ≤ 100 |  |  |
| CC1(C)COCC(=O)N1Cc1ccc(-c2cccc(C3CCC(=O)NC3=O)c2Cl)cc1 (stereo not shown) [Compound 263] | 87.5 | 60 to 90 | 29.3 | ≤ 100 |  |  |
| O=C1CCC(c2cccc(-c3ccc(CN4C(=O)COCC45CC5)cc3)c2Cl)C(=O)N1 (stereo not shown) [Compound 264] | 84.6 | 60 to 90 | 39.5 | ≤ 100 |  |  |
| C[C@H]1COCC(=O)N1Cc1ccc(-c2cccc(C3CCC(=O)NC3=O)c2Cl)cc1 (stereo partly shown) [Compound 265] | 88 | 60 to 90 | 32.5 | ≤ 100 |  |  |
| CC1CCC(F)(F)C(=O)N1Cc1ccc(-c2cccc(C3CCC(=O)NC3=O)c2Cl)cc1 (stereo not shown) [Compound 266] | 93.2 | > 90 | 14.1 | ≤ 100 |  |  |
| CC1CN(Cc2ccc(-c3cccc(C4CCC(=O)NC4=O)c3Cl)cc2)C(=O)C(C)O1 (stereo not shown) [Compound 267] | 96.4 | > 90 | 11.5 | ≤ 100 |  |  |
| CC1(C)CN(c2cccc(-c3ccc(CC4CCC(=O)NC4=O)cc3Cl)c2)C(=O)CO1 (stereo not shown) [Compound 268] | 94.5 |  | 12.8 | ≤ 100 | A (A represents a Dmax % >90%) |  |
| O=C1CCC(c2cccc(-c3ccc(CN4CC5(F)CC(C5)C4=O)cc3)c2Cl)C(=O)N1 (stereo not shown) [Compound 269] | 96.9 | > 90 | 6.83 | ≤ 100 |  |  |
| O=C1CCC(c2cccc(-c3cccc(CC4CCC(F)C(=O)N4)c3)c2Cl)C(=O)N1 (stereo not shown) [Compound 270] | 89.6 | 60 to 90 | 31.3 | ≤ 100 |  |  |
| COC1CCCC(=O)N1Cc1ccc(-c2cccc(C3CCC(=O)NC3=O)c2Cl)cc1 (stereo not shown) [Compound 271] | 83.8 | 60 to 90 | 50.9 | ≤ 100 |  |  |
| Cn1ccc2c1C(=O)N(Cc1ccc(-c3cccc(C4CCC(=O)NC4=O)c3Cl)cc1)CC2 (stereo not shown) [Compound 272] | 96.8 | > 90 | 13.6 | ≤ 100 |  |  |
| O=C1CCC(c2cccc(-c3ccc(CN4CCn5cncc5C4=O)cc3)c2Cl)C(=O)N1 (stereo not shown) [Compound 273] | 78 | 60 to 90 | 118 | 100 to 1000 |  |  |
| O=C1CCC(c2cccc(-c3ccc(CN4CCn5ccnc5C4=O)cc3)c2Cl)C(=O)N1 (stereo not shown) [Compound 274] | 69.5 | 60 to 90 | 269 | 100 to 1000 |  |  |
| O=C1CCC(c2cccc(-c3ccc(CN4CCn5nccc5C4=O)cc3)c2Cl)C(=O)N1 (stereo not shown) [Compound 275] | 87.6 | 60 to 90 | 37.2 | ≤ 100 |  |  |
| O=C1CCC(c2cccc(-c3ccc(CN4Cc5nccn5CC4=O)cc3)c2Cl)C(=O)N1 (stereo not shown) [Compound 276] | 88.6 | 60 to 90 | 47.6 | ≤ 100 |  |  |
| CN1CCN(Cc2ccc(-c3cccc(C4CCC(=O)NC4=O)c3Cl)cc2)C(=O)C1 (stereo not shown) [Compound 277] | 76.8 | 60 to 90 | 647 | 100 to 1000 |  |  |
| O=C1CCC(c2cccc(-c3ccc(CN4C(=O)CC45CCOCC5)cc3)c2Cl)C(=O)N1 (stereo not shown) [Compound 278] | 95.9 | > 90 | 5.33 | ≤ 100 |  |  |
| O=C1CCC(c2cccc(-c3ccc(CN4C(=O)CC45CCC5)cc3)c2Cl)C(=O)N1 (stereo not shown) [Compound 279] | 98.5 | > 90 | 4.83 | ≤ 100 |  |  |
| CC1(C)CN(c2cccc(-c3ccc(CC4CCC(=O)NC4=O)cc3Cl)c2)C(=O)CO1 (stereo not shown) [Compound 280] |  |  | 44.9 | ≤ 100 | B (B represents Dmax % >60% and <=90%) | 83.31 |
| O=C1CCC(c2cccc(-c3ccc(CN4CC5CCCC5C4=O)cc3)c2Cl)C(=O)N1 (stereo not shown) [Compound 282] | 98 | > 90 | 3.88 | ≤ 100 |  |  |
| O=C1CCC(c2cccc(-c3ccc(CN4CCC5CC5C4=O)cc3)c2Cl)C(=O)N1 (stereo not shown) [Compound 283] | 93.3 | > 90 | 11.1 | ≤ 100 |  |  |
| CC1(C)CCC(=O)N(Cc2ccc(-c3cccc(C4CCC(=O)NC4=O)c3Cl)cc2)C1 (stereo not shown) [Compound 284] | 98 | > 90 | 3.48 | ≤ 100 |  |  |

| Structure (SMILES) | Dmax (read-out: VAV1 Dmax %) [%] | Dmax (read-out: VAV1 Dmax %, class) [%] | DC50 (read-out: VAV1 DC50) [nM] | DC50 [1] [nM] | VAV1 Dmax %, class | VAV1 Dmax % [%] |
| --- | --- | --- | --- | --- | --- | --- |
| CC1(C)CCN(Cc2ccc(-c3cccc(C4CCC(=O)NC4=O)c3Cl)cc2)C(=O)C1 (stereo not shown) [Compound 285] | 95.2 | > 90 | 10.2 | ≤ 100 |  |  |
| CC1CCN(Cc2ccc(-c3cccc(C4CCC(=O)NC4=O)c3Cl)cc2)C(=O)C1 (stereo not shown) [Compound 286] | 94 | > 90 | 15.9 | ≤ 100 |  |  |
| CC1CCCN(Cc2ccc(-c3cccc(C4CCC(=O)NC4=O)c3Cl)cc2)C1=O (stereo not shown) [Compound 287] | 95.5 | > 90 | 12.5 | ≤ 100 |  |  |
| CC1CCC(=O)N(Cc2ccc(-c3cccc(C4CCC(=O)NC4=O)c3Cl)cc2)C1 (stereo not shown) [Compound 288] | 96.7 | > 90 | 6.09 | ≤ 100 |  |  |
| O=C1CCC(c2cccc(-c3ccc(CN4CCC(F)C4=O)cc3)c2Cl)C(=O)N1 (stereo not shown) [Compound 289] | 86.7 | 60 to 90 | 43.3 | ≤ 100 |  |  |
| CC1CCN(Cc2ccc(-c3cccc(C4CCC(=O)NC4=O)c3Cl)cc2)C1=O (stereo not shown) [Compound 290] | 92.9 | > 90 | 16.9 | ≤ 100 |  |  |
| O=C1CCC(c2cccc(-c3ccc(CN4CC5CC5C4=O)cc3)c2Cl)C(=O)N1 (stereo not shown) [Compound 291] | 93.1 | > 90 | 21.3 | ≤ 100 |  |  |
| CC1(C)CCCC(=O)N1Cc1ccc(-c2cccc(C3CCC(=O)NC3=O)c2Cl)cc1 (stereo not shown) [Compound 292] | 93.7 | > 90 | 12.7 | ≤ 100 |  |  |
| O=C1CCC(c2cccc(-c3ccc(CN4C(=O)CCC45CCC5)cc3)c2Cl)C(=O)N1 (stereo not shown) [Compound 293] | 95.8 | > 90 | 6.99 | ≤ 100 |  |  |
| O=C1CCC(c2cccc(-c3ccc(CN4C(=O)CCCC45CC5)cc3)c2Cl)C(=O)N1 (stereo not shown) [Compound 294] | 95.7 | > 90 | 8.3 | ≤ 100 |  |  |
| CC1CCCC(=O)N1Cc1ccc(-c2cccc(C3CCC(=O)NC3=O)c2Cl)cc1 (stereo not shown) [Compound 295] | 94.8 | > 90 | 9.84 | ≤ 100 |  |  |
| O=C1CCC(c2cccc(-c3ccc(CN4C(=O)CCC45CC5)cc3)c2Cl)C(=O)N1 (stereo not shown) [Compound 296] | 93.8 | > 90 | 10.1 | ≤ 100 |  |  |
| CC1CCC(=O)N1Cc1ccc(-c2cccc(C3CCC(=O)NC3=O)c2Cl)cc1 (stereo not shown) [Compound 297] | 93.5 | > 90 | 13.4 | ≤ 100 |  |  |
| O=C1CCC(c2cccc(-c3ccc(CN4Cc5ncccc5C4=O)cc3)c2Cl)C(=O)N1 (stereo not shown) [Compound 298] | 95.4 | > 90 | 11.7 | ≤ 100 |  |  |
| O=C1CCC(c2cccc(-c3ccc(CN4Cc5cccnc5C4=O)cc3)c2Cl)C(=O)N1 (stereo not shown) [Compound 299] | 91.6 | > 90 | 91.5 | ≤ 100 |  |  |
| O=C1CCC(c2cccc(-c3ccc(CN4Cc5cnccc5C4=O)cc3)c2Cl)C(=O)N1 (stereo not shown) [Compound 300] | 94.3 | > 90 | 17.1 | ≤ 100 |  |  |
| O=C1CCC(c2cccc(-c3ccc(CN4Cc5ccncc5C4=O)cc3)c2Cl)C(=O)N1 (stereo not shown) [Compound 301] | 86.2 | 60 to 90 | 71.2 | ≤ 100 |  |  |
| O=C1CCC(c2cccc(-c3ccc(CN4CCOCC4=O)cc3)c2Cl)C(=O)N1 (stereo not shown) [Compound 302] | 78 | 60 to 90 | 92.1 | ≤ 100 |  |  |
| C[C@@H]1CCC(=O)N1c1ccc(-c2cccc(C3CCC(=O)NC3=O)c2Cl)cc1 (stereo partly shown) [Compound 303] | 93.5 | > 90 | 13.9 | ≤ 100 |  |  |
| CC1CCN(c2ccc(-c3cccc(C4CCC(=O)NC4=O)c3Cl)cc2)C1=O (stereo not shown) [Compound 304] | 72 | 60 to 90 | 274 | 100 to 1000 |  |  |
| O=C1CCC(c2cccc(-c3ccc(N4C(=O)OCCC4C(F)(F)F)cc3)c2Cl)C(=O)N1 (stereo not shown) [Compound 305] | 93 | > 90 | 19.6 | ≤ 100 |  |  |
| O=C1CCC(c2cccc(-c3ccc(N4CC(C(F)(F)F)OCC4=O)cc3)c2Cl)C(=O)N1 (stereo not shown) [Compound 306] | 89.1 | 60 to 90 | 49.2 | ≤ 100 |  |  |
| O=C1CCC(c2cccc(-c3ccc(N4CC5CC5CC4=O)cc3)c2Cl)C(=O)N1 (stereo not shown) [Compound 307] | 96 | > 90 | 9.64 | ≤ 100 |  |  |
